Tests used:
Assay in all cases: NCI-60 one-dose SRB screening
Assay type in all cases: cell-based
K-562 = conditions: Homo sapiens, K562, K-562, Leukemia, 10 µM one dose, 48 h, read-out: growth percentage
Protocol: (§1) The structures of the synthesized compounds 6a–h, 12a–c, 11, 13a–c, and 14a–c were submitted to the National Cancer Institute’s Developmental Therapeutics Program (NCI-DTP), and all of them were selected for preliminary in vitro anticancer activity screening against NCI-59 human cancer cell lines at a concentration of 10 µM, using the sulforhodamine B (SRB) assay to determine the growth percentage and cell viability.
(§2) The in vitro NCI-60 cell line screening assay was conducted at the National Cancer Institute (NCI), Bethesda, USA against 59 cancer cell lines representing 9 types of cancers, as reported earlier. Briefly, the human cancer cell lines were grown in RPMI 1640 medium containing 5% fetal bovine serum and 2 mM L-glutamine and inoculated into 96-well microtiter plates in 100 μL (5000 to 40,000 cells/well). Then, the plates were incubated at 37 °C, 5% CO2, 95% air, and 100% relative humidity for 24 h. After that, two plates of each cell line were fixed in situ with TCA, to represent cell population at time zero (Tz). The tested compounds were dissolved in DMSO at 400-fold and added so that the final concentration became 10 μM. The plates were then incubated for an additional 48 h followed by the addition of cold TCA to terminate the assay in case of adherent cells. Then, the cells were fixed in situ by cold 50% (w/v) TCA (50 μL; final concentration, 10% TCA) and incubated for 1 h at 4 °C. After discarding the supernatant, the plates were washed 5 times with tap water and air dried. Sulforhodamine B (SRB) solution (100 μL) at 0.4% (w/v) in 1% HOAc was added to each well, and plates were incubated for 10 min. at rt. Then, washing with 1% acetic acid was conducted 5 times to remove the unbound dye followed by air drying. After that, 10 mM trizma base was added to solubilize the bound stain, and the absorbance was read on an automated plate reader at a wavelength of 515 nm. On the other hand, the methodology for suspension cells was the same except that 50 μL of 80% TCA (final concentration, 16% TCA) was gently added to terminate the assay by fixing settled cells at the bottom of the wells. Percentage growth inhibition (GI%) was calculated as follows:
(§3) Growth percentage=Ti (test growth in the presence of compound at 10 µM )−Tz (time zero)/C (control growth)−Tz (time zero)×100 for Ti ≥ Tz;
(§4) Growth percentage=Ti (test growth in the presence of compound at 10 µM )−Tz (time zero)/Tz (time zero)×100 for Ti < Tz.
(§5) where values of 100, 40, 0, −40, and −100 mean no GI, 60% GI, no net G, 40% lethality, and all cells are dead, respectively.

HL-60(TB) = conditions: Homo sapiens, Leukemia, 10 µM one dose, 48 h, read-out: growth percentage
Protocol: as §1, §2, §3, §4, §5

M14 = conditions: Homo sapiens, M14, Melanoma, 10 µM one dose, 48 h, read-out: growth percentage
Protocol: as §1, §2, §3, §4, §5

SF-268 = conditions: Homo sapiens, SF-268, CNS Cancer, 10 µM one dose, 48 h, read-out: growth percentage
Protocol: as §1, §2, §3, §4, §5

RXF 393 = conditions: Homo sapiens, RXF 393, Renal Cancer, 10 µM one dose, 48 h, read-out: growth percentage
Protocol: as §1, §2, §3, §4, §5

NCI-H23 = conditions: Homo sapiens, NCI-H23, Non-Small Cell Lung Cancer, 10 µM one dose, 48 h, read-out: growth percentage
Protocol: as §1, §2, §3, §4, §5

IGROV1 = conditions: Homo sapiens, IGROV-1, IGROV1, Ovarian Cancer, 10 µM one dose, 48 h, read-out: growth percentage
Protocol: as §1, §2, §3, §4, §5

SK-OV-3 = conditions: Homo sapiens, SK-OV-3, Ovarian Cancer, 10 µM one dose, 48 h, read-out: growth percentage
Protocol: as §1, §2, §3, §4, §5

NCI-H522 = conditions: Homo sapiens, NCI-H522, Non-Small Cell Lung Cancer, 10 µM one dose, 48 h, read-out: growth percentage
Protocol: as §1, §2, §3, §4, §5

PC-3 = conditions: Homo sapiens, PC-3, Prostate Cancer, 10 µM one dose, 48 h, read-out: growth percentage
Protocol: as §1, §2, §3, §4, §5

SN12C = conditions: Homo sapiens, Renal Cancer, 10 µM one dose, 48 h, read-out: growth percentage
Protocol: as §1, §2, §3, §4, §5

MDA-MB-231/ATCC = conditions: Homo sapiens, Breast Cancer, 10 µM one dose, 48 h, read-out: growth percentage
Protocol: as §1, §2, §3, §4, §5

A549/ATCC = conditions: Homo sapiens, Non-Small Cell Lung Cancer, 10 µM one dose, 48 h, read-out: growth percentage
Protocol: as §1, §2, §3, §4, §5

MCF7 = conditions: Homo sapiens, MCF7, Breast Cancer, 10 µM one dose, 48 h, read-out: growth percentage
Protocol: as §1, §2, §3, §4, §5

RPMI-8226 = conditions: Homo sapiens, RPMI-8226, Leukemia, 10 µM one dose, 48 h, read-out: growth percentage
Protocol: as §1, §2, §3, §4, §5

NCI-H226 = conditions: Homo sapiens, NCI-H226, Non-Small Cell Lung Cancer, 10 µM one dose, 48 h, read-out: growth percentage
Protocol: as §1, §2, §3, §4, §5

MDA-MB-435 = conditions: Homo sapiens, MDA-MB-435, Melanoma, 10 µM one dose, 48 h, read-out: growth percentage
Protocol: as §1, §2, §3, §4, §5

SF-539 = conditions: Homo sapiens, SF-539, CNS Cancer, 10 µM one dose, 48 h, read-out: growth percentage
Protocol: as §1, §2, §3, §4, §5

786-0 = conditions: Homo sapiens, 786-0, Renal Cancer, 10 µM one dose, 48 h, read-out: growth percentage
Protocol: as §1, §2, §3, §4, §5

SK-MEL-28 = conditions: Homo sapiens, SK-MEL-28, Melanoma, 10 µM one dose, 48 h, read-out: growth percentage
Protocol: as §1, §2, §3, §4, §5

NCI-H460 = conditions: Homo sapiens, NCI-H460, Non-Small Cell Lung Cancer, 10 µM one dose, 48 h, read-out: growth percentage
Protocol: as §1, §2, §3, §4, §5

Row | Compound | activity at 10 µM (K-562) | activity at 10 µM (HL-60(TB)) | activity at 10 µM (M14) | activity at 10 µM (SF-268) | activity at 10 µM (RXF 393) | activity at 10 µM (NCI-H23) | activity at 10 µM (IGROV1) | activity at 10 µM (SK-OV-3) | activity at 10 µM (NCI-H522) | activity at 10 µM (PC-3) | activity at 10 µM (SN12C) | activity at 10 µM (MDA-MB-231/ATCC) | activity at 10 µM (A549/ATCC) | activity at 10 µM (MCF7) | activity at 10 µM (RPMI-8226) | activity at 10 µM (NCI-H226) | activity at 10 µM (MDA-MB-435) | activity at 10 µM (SF-539) | activity at 10 µM (786-0) | activity at 10 µM (SK-MEL-28) | also measured
1 | Cc1nc(Nc2ccc(OCc3c(-c4ccccc4)no[n+]3[O-])cc2)c2cnn(-c3ccc(Br)cc3)c2n1 [6f, 3-((4-((1-(4-bromophenyl)-6-methyl-1H-pyrazolo[3,4-d]pyrimidin-4-yl)amino)phenoxy)methyl)-4-phenyl-1,2,5-oxadiazole 2-oxide] | 91.1% | 100% | 94.2% | 99.9% | 121% | 95.8% | 101% | 113% | 92.5% | 103% | 94.8% | 106% | 94.9% | 85.3% | 115% | 108% | 94.5% | 94.2% | 82.2% | 103% | activity at 10 µM (NCI-H460): 103%
2 | Cc1nn(-c2ccc(Br)cc2)c2ncnc(Nc3ccc(OCc4c(-c5ccccc5)no[n+]4[O-])cc3)c12 [6g, 3-((4-((1-(4-bromophenyl)-3-methyl-1H-pyrazolo[3,4-d]pyrimidin-4-yl)amino)phenoxy)methyl)-4-phenyl-1,2,5-oxadiazole 2-oxide] | 103% | 115% | 94% | 104% | 131% | 95% | 88.2% | 96.2% | 92% | 90.9% | 91.3% | 84.9% | 97.3% | 89% | 108% | 89.9% | 101% | 90.4% | 122% | 99.5% | activity at 10 µM (NCI-H460): 100%
3 | Cc1nc(Nc2ccc(OCc3c(-c4ccccc4)no[n+]3[O-])cc2)c2c(C)nn(-c3ccc(Br)cc3)c2n1 [6h, 3-((4-((1-(4-bromophenyl)-3,6-dimethyl-1H-pyrazolo[3,4-d]pyrimidin-4-yl)amino)phenoxy)methyl)-4-phenyl-1,2,5-oxadiazole 2-oxide] | 83.6% | 70.8% | 89.5% | 94.7% | 136% | 96.6% | 99% | 109% | 84% | 67.4% | 96.4% | 100% | 96.4% | 87.4% | 90.6% | 109% | 96.7% | 96.1% | 107% | 101% | activity at 10 µM (NCI-H460): 100%
4 | Cc1nn(-c2ccccc2)c2nc(C(F)(F)F)nc(Nc3ccc(NCc4c(-c5ccccc5)no[n+]4[O-])cc3)c12 [12a, 3-(((4-((3-methyl-1-phenyl-6-(trifluoromethyl)-1H-pyrazolo[3,4-d]pyrimidin-4-yl)amino)phenyl)amino)methyl)-4-phenyl-1,2,5-oxadiazole 2-oxide] | 39.8% | 77.2% | 68.7% | 68.6% | 86.8% | 96.7% | 77.9% | 96.9% | 91.4% | 45.6% | 77.7% | 84.4% | 76.6% | 58.5% | 83.4% | 85.6% | 78.7% | 78.1% | 92.4% | 92.4% | activity at 10 µM (NCI-H460): 53%
5 | [O-][n+]1onc(-c2ccccc2)c1CNc1ccc(Nc2nc(C(F)(F)F)nc3c2cnn3-c2ccc(Br)cc2)cc1 [12b, 3-(((4-((1-(4-bromophenyl)-6-(trifluoromethyl)-1H-pyrazolo[3,4-d]pyrimidin-4-yl)amino)phenyl)amino)methyl)-4-phenyl-1,2,5-oxadiazole 2-oxide] | 22.8% | 79.8% | 68.2% | 65% | 51.2% | 72.4% | 60.1% | 88.8% | 72.6% | 48.2% | 58% | 69.7% | 64.4% | 38.8% | 73.8% | 77% | 72.8% | 68.3% | 67.2% | 89.2% | activity at 10 µM (NCI-H460): 35.6%
6 | Cc1nn(-c2ccc(Br)cc2)c2nc(C(F)(F)F)nc(Nc3ccc(NCc4c(-c5ccccc5)no[n+]4[O-])cc3)c12 [12c, 3-(((4-((1-(4-bromophenyl)-3-methyl-6-(trifluoromethyl)-1H-pyrazolo[3,4-d]pyrimidin-4-yl)amino)phenyl)amino)methyl)-4-phenyl-1,2,5-oxadiazole 2-oxide] | 51.4% | 83.2% | 71.9% | 73.2% | 89.2% | 91.6% | 59.6% | 82.7% | 83.5% | 47% | 76.2% | 65.9% | 82.4% | 68.2% | 91.1% | 75% | 86.6% | 59.4% | 88.1% | 89.5% | activity at 10 µM (NCI-H460): 46.6%

Source: PMC8880564, “Design, Synthesis, and Biological Evaluation of a Novel VEGFR-2 Inhibitor Based on a 1,2,5-Oxadiazole-2-Oxide Scaffold with MAPK Signaling Pathway Inhibition” (Pharmaceuticals, 2022)
